BigSolDB 2.1

O=P(Oc1ccccc1)(Oc1ccccc1)N1CCN(P(=O)(Oc2ccccc2)Oc2ccccc2)CC1
solubility (mole fraction)
Conditions	in 1-methoxy-2-propanol	in 1-methoxy-2-propyl acetate	in 1-propoxy-2-propanol	in 2-(2-methoxypropoxy) propanol
293.15 K	0.000356	0.000351	0.000353	0.000974
298.15 K	0.000447	0.000443	0.000445	0.00117
303.15 K	0.000589	0.000517	0.000564	0.00139
308.15 K	0.000782	0.00063	0.000715	0.00167
313.15 K	0.00102	0.000762	0.000893	0.00199
318.15 K	0.00132	0.000945	0.00112	0.00236
323.15 K	0.00168	0.00115	0.00141	0.0029
328.15 K	0.00215	0.00141	0.00177	0.00344
333.15 K	0.00282	0.0017	0.00219	0.00408
338.15 K	0.00367	0.00204	0.00275	0.00474
343.15 K	0.00457	0.00248	0.00339	0.00562

O=P(NCc1cccc(CNP(=O)(Oc2ccccc2)Oc2ccccc2)c1)(Oc1ccccc1)Oc1ccccc1
solubility (mole fraction)
Conditions	in 1-methoxy-2-propanol	in 1-methoxy-2-propyl acetate	in 1-propoxy-2-propanol	in 2-(2-methoxypropoxy) propanol
293.15 K	0.000609	0.00319	0.000508	0.00267
298.15 K	0.000758	0.00373	0.000636	0.00331
303.15 K	0.000936	0.0043	0.000766	0.00401
308.15 K	0.00114	0.0049	0.000964	0.00487
313.15 K	0.00138	0.00547	0.00121	0.00584
318.15 K	0.00169	0.00635	0.00144	0.00714
323.15 K	0.00204	0.00708	0.00182	0.00829
328.15 K	0.00255	0.0079	0.00216	0.00995
333.15 K	0.00305	0.00891	0.00259	0.0116
338.15 K	0.00374	0.01	0.00316	0.0138
343.15 K	0.00432	0.0115	0.00374	0.0156
